{"source": "patent US20230404887A1", "about": "“COMPOSITIONS TO LIMIT OR ELIMINATE THE PERCEPTION OF SWEAT MALODOR” (Firmenich SA, priority 2020, published 2023)", "key": {"[1]": {"assay": "Expert perfumer evaluation of malodor reduction, dynamic olfactometer, against 3M2HA", "parameters": "species or system human", "protocol": "The effectiveness of perfuming materials in compositions to reduce the perception of, for example, axillary sweat malodors, was evaluated by an expert perfumer by 1) selecting target axillary malodor components, 2) delivering target malodor components and candidate malodor reducing materials to the nose of an expert perfumer at carefully controlled concentrations, 3) having the expert perfumer identify the concentration at which malodor reduction was obtained, and 4) rating the degree of reduction achieved at the concentration identified in step 3.\nIn this method, a dynamic multi-channel olfactometer was used to precisely deliver known gas phase concentrations of the test materials, using forced evaporation, into a stream of air emanating from a smelling port. The appropriate concentration of the malodor component was established prior to its being mixed with the candidate malodor reducing substance. The concentration was set at a concentration sufficient to produce an intensity of 0.5 (mid-intensity) on a scale of 0-1. The expert perfumer then dynamically adjusted the concentration of the candidate malodor reducing substance to determine the effective concentration, while maintaining a fixed concentration of the malodor component. Once the appropriate concentration had been determined, the expert perfumer evaluated the perception of the mixtures repeatedly over a period of several minutes, taking breaks in between sniffs to avoid adaptation to the components being tested, before providing a rating.\nTests were performed in a forced-evaporation, dynamic olfactometer, with malodor component concentrations held fixed at a mid-intensity. Ratings of effectiveness were based in the following scale: −2 (significant increase in malodor), −1 (slight increase in malodor), 0 (no effect), 1 (slight malodor reduction), 2 (good malodor reduction), 3 (complete malodor reduction). The malodor (MO) component abbreviations are 3H3MHA (3-methyl-3-hydroxyhexanoic acid), 3M2HA (3-methyl-2-hexenoic acid), 3M3SH (3-methyl-3-sulphanylhexanol)."}, "[2]": {"assay": "Naive panelist evaluation of malodor reduction at mid-intensity dosages, passive evaporation in jars, against 4MOA", "parameters": "species or system human", "conditions": "MO 4MOA dosage 7.5%, test compound dosage 1.5% in DiPG on cellulose pads; jar equilibrated 4 hours at room temperature; N 26 panelists", "protocol": "The performance of fragrancing products was evaluated by non-expert consumers under passive evaporation conditions. This was achieved by: 1) selecting target axillary malodor components, 2) delivering target malodor components and candidate malodor reducing materials (separately) to the noses of naïve panelists at a range of dosages established under passive evaporation conditions 3) having the panelists evaluate the overall intensity of each presented sample, 4) determining the average mid-intensity concentration for both the malodors and malodor reducing candidates of interest, 5) delivering samples containing a malodor component and a malodor reducing candidate of interest mixed together at the dosages determined in step 4, along with separate control samples containing either alone or neither, to the noses of panelists, 6) having panelists evaluate the malodor intensity for each presented sample, and 7) determining the degree of malodor reduction produced by the candidate malodor reducing material by comparing the malodor intensity ratings of the mixture to those of the control samples. […]"}}}
{"smiles": "CCOC(=O)C12CCCC1C1CCC2C1", "note": "(stereo not drawn) [ethyl tricyclo[5.2.1.0.(2,6)]decane-2-carboxylate]", "values": [{"measurement": "EFFECTIVE CONCENTRATION", "setting": "[1]; MO 3M2HA held fixed at mid-intensity (0.5), headspace concentration providing an effective level", "value": "1.07E−01", "unit": "micrograms/L AIR"}, {"measurement": "EXPERT RATING", "setting": "[1]; MO 3M2HA held fixed at mid-intensity (0.5 on scale 0-1), rating of degree of malodor reduction at the effective concentration", "value": 3}, {"measurement": "Reduction (%)", "setting": "[2]", "value": 43, "unit": "%"}]}
